Calls of active or inactive are those of the source.
What was measured:
[1] = Trypanosoma cruzi growth suppression in host cells – NIH3T3 host cells, beta-gal luminescence, confirmation (AID 2044); format: functional, cell-based;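 also: intracellular parasites grown in NIH/3T3 mouse fibroblasts as host cells; luminescent beta-galactosidase reporter signal from transgenic T. cruzi replicating inside host cells; inhibitors lower the luminescence signal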
[2] = NIH3T3 cell viability loss – ATP luminescence, mouse fibroblasts, counter-screen, dose response (AID 2010); format: functional, cell-based;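 also: cells exposed to compound for about 90 hours before reading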
[3] = cells
[4] = test system: Vero; assay: Vero 76 cell viability after compound exposure – Vero 76 cells, synthesized analogs, cytotoxicity control for West Nile virus antiviral project, SAR follow-up (AID 2414); format: functional; details: Chlorocebus sabaeus
[5] = test system: Vero; assay: Vero cell viability after compound exposure – synthesized analogs, set II, cytotoxicity control for West Nile virus antiviral project, SAR follow-up (AID 2402); format: functional; details: Chlorocebus sabaeus
[6] = molecular target: T1, Estrogen receptor (Homo sapiens, UniProt P03372);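 also: potency for inhibiting coactivator peptide recruitment to the receptor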
T1 sequence (P03372 whole entry): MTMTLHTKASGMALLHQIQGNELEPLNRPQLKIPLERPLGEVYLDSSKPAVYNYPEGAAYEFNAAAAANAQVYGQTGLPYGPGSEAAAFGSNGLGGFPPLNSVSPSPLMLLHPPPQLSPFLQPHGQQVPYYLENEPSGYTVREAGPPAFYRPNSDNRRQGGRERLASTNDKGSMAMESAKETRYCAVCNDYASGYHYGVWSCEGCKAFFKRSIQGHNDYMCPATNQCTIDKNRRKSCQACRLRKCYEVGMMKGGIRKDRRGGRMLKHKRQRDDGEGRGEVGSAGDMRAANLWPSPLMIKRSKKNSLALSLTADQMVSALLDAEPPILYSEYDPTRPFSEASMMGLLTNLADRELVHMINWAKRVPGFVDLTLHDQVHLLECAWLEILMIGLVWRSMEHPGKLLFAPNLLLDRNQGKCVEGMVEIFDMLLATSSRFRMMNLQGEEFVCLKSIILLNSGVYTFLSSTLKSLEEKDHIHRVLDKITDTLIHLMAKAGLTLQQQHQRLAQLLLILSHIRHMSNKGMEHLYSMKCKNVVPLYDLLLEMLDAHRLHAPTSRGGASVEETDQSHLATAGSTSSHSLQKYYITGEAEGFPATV

[7] = molecular target: Estrogen receptor beta (Homo sapiens, UniProt Q92731);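 also: recombinant ER-beta bound to coactivator SRC1 peptide in presence of estradiol agonist; inhibitors block coactivator peptide binding and lower the FRET signal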
[8] = Luminescent dose response cell-based high throughput screening assay for inhibitors of the Janus kinase 2 mutant JAK2V617F. [Related pubchem assays: 1446 (Primary screen.), 1521 (Confirmation assay.), 1486 (Counter screen.)]; format: functional
[9] = test system: BJ; assay: BJ-TERT fibroblast viability loss – cell-based, RAS-independent, luminescence, dose response (AID 1933); format: functional; details: Homo sapiens
[10] = test system: BJ; assay: cells; format: functional, cell-based; details: Homo sapiens
[11] = test system: BJ; assay: BJ-TERT-LT-ST fibroblast viability loss – cell-based, RAS-independent, luminescence, dose response (AID 1935); format: functional; details: Homo sapiens;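 also: BJ fibroblasts immortalized with TERT plus LT and ST oncogenes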
[12] = DRD fibroblast viability loss – cell-based, non-viral oncogenic, luminescence, dose response (AID 1934); format: functional; details: Homo sapiens
[13] = molecular target: 5-hydroxytryptamine receptor 1A (Homo sapiens, UniProt P08908); format: functional
[14] = molecular target: Voltage-gated inwardly rectifying potassium channel KCNH2 (Homo sapiens, UniProt Q12809); assay: concentration-dependent hERG rescue from blockers – cell-based, thallium flux, dose response (AID 2121); format: ADME
[15] = molecular target: Beta-galactosidase (Escherichia coli, UniProt Q8VNN2); assay: PubChem AID 485352; format: functional
[16] = test system: Vero; assay: mammalian cell viability reduction – secondary assay, cytotoxicity control for West Nile virus antiviral project, dose response (AID 1650); format: functional; details: Chlorocebus sabaeus
[17] = Luminescence-based dose response cell-based high throughput screening assay for cytotoxic compounds using the IEC-6 intestinal epithelial cell line. [Related pubchem assays: 1858 (Summary AID.), 1825 (Counterscreen.), 1907 (Confirmation screen.)]; format: functional
[18] = molecular target: T2, Type-1 angiotensin II receptor (Homo sapiens, UniProt P30556); assay: antagonism of angiotensin II type 1 receptor – cell-based, uHTS hits, selectivity assay for APJ receptor antagonist project, dose response (AID 463214); format: functional;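 also: antagonist potency against angiotensin II stimulated AT1 response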
T2 sequence (P30556 whole entry): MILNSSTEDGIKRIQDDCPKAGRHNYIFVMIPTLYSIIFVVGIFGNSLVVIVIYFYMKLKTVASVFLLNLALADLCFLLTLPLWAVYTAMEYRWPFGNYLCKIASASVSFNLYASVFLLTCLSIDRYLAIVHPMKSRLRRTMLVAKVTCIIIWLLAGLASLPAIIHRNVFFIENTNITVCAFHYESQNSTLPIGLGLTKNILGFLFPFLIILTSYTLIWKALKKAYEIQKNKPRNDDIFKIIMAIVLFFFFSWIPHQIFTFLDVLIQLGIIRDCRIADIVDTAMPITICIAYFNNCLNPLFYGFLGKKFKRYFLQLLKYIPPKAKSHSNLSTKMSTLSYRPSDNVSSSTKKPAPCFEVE

[19] = molecular target: Nonstructural protein 1 (Influenza A virus, UniProt Q194T2); format: functional, Influenza A virus (A/California/07/2009(H1N1))
[20] = test system: Vero; assay: cells; format: functional, cell-based; details: Chlorocebus sabaeus
[21] = test system: BJ; assay: growth inhibition of engineered Ras-driven BJ cells – cell-based, alamar blue fluorescence, cherrypicked samples, dose response (AID 2631); format: functional; details: Homo sapiens;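 also: confirmatory dose-response assay in RAS-dependent BJ fibroblasts engineered with TERT, LT and ST, with cytotoxicity read by fluorescence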
[22] = test system: INS1; assay: INS-1E survival protection against cytokine death – cell-based, luminescence, retest, dose response (AID 449756); format: functional; details: Rattus norvegicus;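 also: cell death triggered by IL-1 beta plus TNF-alpha plus IFN-gamma mixture; protective hits raise ATP signal compared with cytokine alone wells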
[23] = test system: Vero; assay: cells; format: functional; details: Chlorocebus sabaeus
[24] = molecular target: Diphosphomevalonate decarboxylase (Streptococcus pneumoniae serotype 2 (strain D39 / NCTC 7466), UniProt Q9FD53); assay: diphosphomevalonate decarboxylase inhibitor confirmation – biochemical, cuvette format, coupled NADH fluorescence (AID 1028); format: functional
Sequence of Diphosphomevalonate decarboxylase (Q9FD53 whole entry): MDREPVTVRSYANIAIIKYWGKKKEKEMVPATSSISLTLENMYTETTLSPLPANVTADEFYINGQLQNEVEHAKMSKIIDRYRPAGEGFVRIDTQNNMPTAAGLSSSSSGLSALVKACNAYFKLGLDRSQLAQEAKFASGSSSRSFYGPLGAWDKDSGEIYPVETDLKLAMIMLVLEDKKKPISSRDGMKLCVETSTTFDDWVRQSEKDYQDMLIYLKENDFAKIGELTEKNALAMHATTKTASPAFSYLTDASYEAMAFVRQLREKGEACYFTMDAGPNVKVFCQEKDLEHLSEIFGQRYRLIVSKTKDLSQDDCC

Sequence of Nonstructural protein 1 (Q194T2 whole entry): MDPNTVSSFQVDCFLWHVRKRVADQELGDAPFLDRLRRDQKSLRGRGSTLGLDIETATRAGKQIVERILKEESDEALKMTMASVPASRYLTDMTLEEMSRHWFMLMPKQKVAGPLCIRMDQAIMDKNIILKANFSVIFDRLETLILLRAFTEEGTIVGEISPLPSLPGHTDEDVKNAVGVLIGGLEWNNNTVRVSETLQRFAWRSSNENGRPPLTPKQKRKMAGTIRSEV
Sequence of Beta-galactosidase (Q8VNN2 whole entry): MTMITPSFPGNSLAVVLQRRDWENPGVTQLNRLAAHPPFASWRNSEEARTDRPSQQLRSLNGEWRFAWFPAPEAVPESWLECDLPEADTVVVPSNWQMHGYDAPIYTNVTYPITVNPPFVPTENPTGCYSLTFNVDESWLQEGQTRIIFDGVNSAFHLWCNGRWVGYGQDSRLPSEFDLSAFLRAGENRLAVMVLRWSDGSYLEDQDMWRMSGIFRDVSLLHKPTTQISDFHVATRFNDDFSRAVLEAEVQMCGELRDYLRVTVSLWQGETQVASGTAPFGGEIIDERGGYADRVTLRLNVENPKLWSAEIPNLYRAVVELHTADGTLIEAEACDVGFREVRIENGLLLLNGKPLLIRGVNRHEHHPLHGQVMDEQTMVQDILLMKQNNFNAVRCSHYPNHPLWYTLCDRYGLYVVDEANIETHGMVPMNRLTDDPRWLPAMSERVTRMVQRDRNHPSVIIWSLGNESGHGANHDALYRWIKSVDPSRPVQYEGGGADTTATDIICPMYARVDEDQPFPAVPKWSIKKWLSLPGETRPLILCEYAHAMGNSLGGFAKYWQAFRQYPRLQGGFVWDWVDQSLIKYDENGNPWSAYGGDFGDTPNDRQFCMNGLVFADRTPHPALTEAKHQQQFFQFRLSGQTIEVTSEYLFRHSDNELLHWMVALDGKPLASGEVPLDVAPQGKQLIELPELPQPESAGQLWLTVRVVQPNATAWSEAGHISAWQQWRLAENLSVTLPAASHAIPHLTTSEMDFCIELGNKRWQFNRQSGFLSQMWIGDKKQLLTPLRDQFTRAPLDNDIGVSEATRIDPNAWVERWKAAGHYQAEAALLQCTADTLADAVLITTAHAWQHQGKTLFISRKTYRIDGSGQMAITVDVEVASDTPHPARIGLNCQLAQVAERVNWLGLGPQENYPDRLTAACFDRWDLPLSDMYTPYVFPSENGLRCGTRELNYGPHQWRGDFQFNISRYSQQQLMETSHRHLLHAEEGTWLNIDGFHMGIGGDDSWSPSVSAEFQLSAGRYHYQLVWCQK
Sequence of Voltage-gated inwardly rectifying potassium channel KCNH2 (Q12809 whole entry): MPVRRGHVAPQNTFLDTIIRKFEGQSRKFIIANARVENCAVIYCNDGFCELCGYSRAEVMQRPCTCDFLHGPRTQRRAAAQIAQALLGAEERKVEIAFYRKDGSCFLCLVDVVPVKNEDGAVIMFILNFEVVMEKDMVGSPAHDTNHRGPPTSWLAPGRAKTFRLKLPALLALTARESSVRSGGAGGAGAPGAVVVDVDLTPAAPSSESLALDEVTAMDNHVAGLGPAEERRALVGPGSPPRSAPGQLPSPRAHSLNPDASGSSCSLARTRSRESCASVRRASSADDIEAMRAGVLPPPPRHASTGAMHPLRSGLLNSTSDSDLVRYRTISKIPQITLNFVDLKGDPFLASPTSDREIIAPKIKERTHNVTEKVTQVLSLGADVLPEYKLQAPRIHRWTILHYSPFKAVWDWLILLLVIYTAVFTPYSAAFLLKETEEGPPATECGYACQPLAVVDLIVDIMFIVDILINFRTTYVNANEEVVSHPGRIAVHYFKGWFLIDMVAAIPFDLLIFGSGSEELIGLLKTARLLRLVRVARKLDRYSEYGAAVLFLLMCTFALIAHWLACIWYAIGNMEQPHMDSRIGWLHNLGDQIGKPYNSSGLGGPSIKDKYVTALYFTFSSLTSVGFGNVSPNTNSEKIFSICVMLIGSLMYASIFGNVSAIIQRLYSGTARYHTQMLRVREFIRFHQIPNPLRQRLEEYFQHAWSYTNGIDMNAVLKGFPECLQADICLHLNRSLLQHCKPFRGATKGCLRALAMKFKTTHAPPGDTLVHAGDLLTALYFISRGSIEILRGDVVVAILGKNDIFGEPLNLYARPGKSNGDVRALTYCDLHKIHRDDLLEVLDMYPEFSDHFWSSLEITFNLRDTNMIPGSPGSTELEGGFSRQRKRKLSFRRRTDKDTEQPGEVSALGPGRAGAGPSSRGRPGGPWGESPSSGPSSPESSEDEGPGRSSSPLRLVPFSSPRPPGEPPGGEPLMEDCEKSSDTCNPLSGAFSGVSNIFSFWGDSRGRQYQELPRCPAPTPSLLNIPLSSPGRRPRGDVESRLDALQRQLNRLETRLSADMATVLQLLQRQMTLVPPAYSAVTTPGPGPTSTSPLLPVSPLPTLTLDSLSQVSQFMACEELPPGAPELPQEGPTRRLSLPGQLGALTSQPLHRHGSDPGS
Sequence of 5-hydroxytryptamine receptor 1A (P08908 whole entry): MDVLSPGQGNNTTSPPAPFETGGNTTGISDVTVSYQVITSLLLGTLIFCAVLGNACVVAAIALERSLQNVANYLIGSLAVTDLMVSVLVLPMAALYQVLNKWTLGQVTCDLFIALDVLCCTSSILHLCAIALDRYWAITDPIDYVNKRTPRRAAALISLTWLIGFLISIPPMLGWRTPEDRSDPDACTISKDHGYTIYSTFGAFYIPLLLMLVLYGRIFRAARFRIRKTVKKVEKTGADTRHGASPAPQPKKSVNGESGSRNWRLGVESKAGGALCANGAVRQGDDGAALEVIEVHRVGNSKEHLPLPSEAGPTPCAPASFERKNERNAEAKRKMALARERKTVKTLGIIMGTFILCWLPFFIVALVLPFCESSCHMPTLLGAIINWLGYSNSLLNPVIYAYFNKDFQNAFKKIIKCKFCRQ
Sequence of Estrogen receptor beta (Q92731 whole entry): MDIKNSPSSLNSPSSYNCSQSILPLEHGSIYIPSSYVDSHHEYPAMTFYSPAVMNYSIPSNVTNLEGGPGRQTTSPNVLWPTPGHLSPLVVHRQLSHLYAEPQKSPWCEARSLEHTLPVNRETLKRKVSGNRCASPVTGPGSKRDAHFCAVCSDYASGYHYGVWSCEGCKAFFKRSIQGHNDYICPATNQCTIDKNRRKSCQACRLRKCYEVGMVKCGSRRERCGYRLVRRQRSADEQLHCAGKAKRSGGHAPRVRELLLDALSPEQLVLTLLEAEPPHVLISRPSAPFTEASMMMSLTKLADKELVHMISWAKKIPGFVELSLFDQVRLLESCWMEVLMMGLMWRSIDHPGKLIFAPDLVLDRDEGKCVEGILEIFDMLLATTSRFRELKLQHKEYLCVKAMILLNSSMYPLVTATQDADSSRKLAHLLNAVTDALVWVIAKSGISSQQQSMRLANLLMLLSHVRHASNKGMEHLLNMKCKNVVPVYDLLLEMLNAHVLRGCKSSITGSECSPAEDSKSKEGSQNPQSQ

## CC(NS(=O)(=O)c1ccc(CCC(=O)N2CCN(C)CC2)cc1)c1ccccc1 (stereo not drawn)
[1]
  EC50: < 100 nM (active)
[2]
  EC50: > 60 µM (not active)
[3]
  EC50: 349 nM (active)

## O=C(CSc1nc2cccc(I)c2c(=O)n1-c1ccccc1)Nc1ccc2c(c1)CCC2
[4]
  CC50: > 133 µM (active)
[5]
  CC50: > 200 µM (active)

## CC(=N)/C(C#N)=C(/O)CSc1nnc(Cc2ccccc2F)n1N
[6]
  IC50: > 50 µM (not active)
[7]
  IC50: 13.6 µM (active)

## Cc1nn(Cc2ccc(Cl)cc2Cl)c(C)c1NC(=O)CCl
[8]
  IC50: 2.44 µM (active)
[9]
  EC50: 8.35 µM (active)
[10]
  EC50: 21.2 µM (active)
[11]
  EC50: > 150 µM (inconclusive)
[12]
  EC50: 12.1 µM (active)

## CC(CCc1ccccc1)NC(=O)CSc1nc(N)cc(N)n1 (stereo not drawn)
[13]
  EC50: > 50 µM (not active)

## COc1ccc(OC)c(NC(=S)NC(=O)c2ccc(Br)o2)c1
[14]
  EC50: 10 nM (active)

## C/C(=N\NC(=O)c1ccc(F)cc1)c1ccccn1
[9]
  EC50: 0.844 µM (inconclusive)
[15]
  EC50: > 40 µM (inactive)
[16]
  CC50: 2.28 µM (active)
[10]
  EC50: 1.98 µM (active)
[17]
  IC50: 540 nM (active)
[18]
  IC50: 1.96 µM (active)
[11]
  EC50: 3.53 µM (active)
[12]
  EC50: 5.06 µM (active)
[19]
  IC50: 3 µM (active)
[20]
  IC50: > 25 µM (active)
[21]
  EC50: 475 nM (active)
[22]
  AC50: 523 nM (active)
[23]
  CC50: 2.98 µM (active)

## O=C(c1cccc(-n2sc3ccccc3c2=O)c1)N1CCCCC1
[24]
  IC50: 13.6 µM (active)

Source: ChEMBL document CHEMBL1201862, “PubChem BioAssay data set” (2004)
